Measurements as given in publication PMC10135569, “Does Enhanced Structural Maturity of hiPSC-Cardiomyocytes Better for the Detection of Drug-Induced Cardiotoxicity?” (Biomolecules, 2023).
Entries after “also recorded” stand apart in the source; their conditions may differ. Where two headings read alike, the source gives them in different places.

How the values were obtained:
[1] = listed in Supplementary Table S1; no reference given; cited from earlier work
[2] = system: hiPSC-CMs (iCell2 Cardiomyocytes) 2D monolayers; assay: Membrane potential (action potential) recordings with FluoVolt voltage-sensitive dye on the CellOPTIQ platform; type: cell-based, human; conditions: for effect on APD90: positive control
Description: (§1) Cardiomyocytes (FUJIFILM Cellular Dynamics, Madison, WI, USA) were kept at −190 °C and prepared for culture as per the manufacturer’s instructions.
(§2) Standard fibronectin vs. Matrix Plus well coating: The cells were cultured using two different coatings in a humidified incubator at 37 °C with 5% CO2. First, 96-well glass-bottomed plates (MatTek, Ashland, MA) were coated with fibronectin ([…] in PBS supplemented with Ca^2+ and Mg^2+; Sigma, St. Louis, MO, USA) (defining FM). Second, CELLvo^TM Matrix Plus (StemBioSys, San Antonio, TX, USA), which were pre-coated on 96 well glass bottom plates and kept at 4 °C. On the day of plating, CELLvo^TM Matrix Plus plates were transferred to room temperature, rehydrated with phosphate buffer saline (PBS), incubated for 1 h at 37 °C, and washed 2× with PBS. Cells were introduced at a density of 50,000 cells/well to allow the formation of a confluent monolayer in each well (defined as MM). The maintenance protocols followed the manufacturer’s instructions and used the iCell^2 Cardiomyocytes Maintenance media for media changes every 2 days. Experiments were performed between days 5 and 6, as recommended by the manufacturers. Before beginning an experiment, cells were washed in serum-free media (SF media) (Fluorobrite DMEM, Gibco, Thermo Fisher Scientific, Horsham, UK).
(§3) The drug powders were dissolved in DMSO, and four stock concentrations at 1000× the final target concentration were prepared in DMSO. For the experiment, an intermediate concentration 2× the target solution was prepared in SF media. The addition of drugs to the cells was accomplished by replacing 50% of the well volume with the intermediate 2× solution. The same procedure was done for vehicle control using DMSO. The experimental number n = 8/concentration/testing compound in the FM or MM condition, and n = 36 for each positive or negative control in the FM or MM condition.
Cultures of hiPSC-CMs (5–6 days post-plating) were treated with FluoVolt dye (1:1000, Invitrogen, Cat# F10488) in SF media and incubated for 20 min at 37 °C with 5% CO2 and 80% humidity. Multi-well plates were placed in the environmentally controlled stage incubator (37 °C, 5% CO2, water-saturated air atmosphere) (Okolab Inc. Burlingame, CA) of the CellOPTIQ® platform (Clyde Biosciences Ltd., Glasgow, Scotland). The FluoVolt signal was recorded from a 0.2 mm × 0.2 mm area using a 40× (numerical aperture: NA 0.6) Excitation wavelength was 470 ± 10 nm using a light-emitting diode (LED), and emitted light was collected by two photomultipliers (PMTs) at 510–560 nm (channel 1) and 590–650 nm (channel 2), respectively. LED, PMT, and associated power supplies and amplifiers were supplied by Cairn Research Ltd. (Kent, UK) and digitized at 10 kHz and stored on a computer hard drive. In the case of FluoVolt-based action potential recordings, the short wavelength (channel 1, […]) was analyzed for action potential features.
(§4) The dye FluoVolt is loaded into the surface membrane (outer leaflet), and the dye remains within the membrane for many dots, allowing intermittent voltage measurements over the experimental period. In this study, measurements were restricted to within 30 mins of application of the drug. The measurements were made on the same area before/after drug/DMSO addition. […] Baseline spontaneous electrical activity and the associated contractility signal were recorded by capturing 10 s segments of fluorescent signal and video for 2D plates and 15 s for organoids from each well prior to compound addition. Drugs were tested at four concentrations in n = 8 independent replicates (i.e., 8 wells from a single plating) at each concentration. A vehicle control was included for each drug. A 10 s or 15 s recording was then taken 30 min after exposure to the drug or vehicle with only one concentration applied/well.

[3] = system: hiPSC-CMs (iCell2 Cardiomyocytes) 2D monolayers; assay: Contractility measurements using video imaging (ContractilityTool / MUSCLEMOTION); type: cell-based, human
Description: as §1, §2, §3
as §4, with “applied/well. Offline analysis was performed using proprietary software (CellOPTIQ®).” for “applied/well.”
Short periods (10 s or 15 s) of video were analyzed using the ContractilityTool application (developed by F.L. Burton), which is an implementation of the MUSCLEMOTION algorithm.

[4] = FM monolayer, 0.01 µM, 30 min, delta over DMSO 0.1%
[5] = FM monolayer, 0.1 µM, 30 min, delta over DMSO 0.1%
[6] = FM monolayer, 0.3 µM, 30 min, delta over DMSO 0.1%
[7] = FM monolayer, 1 µM, 30 min, delta over DMSO 0.1%
[8] = MM monolayer, 0.01 µM, 30 min, delta over DMSO 0.1%
[9] = MM monolayer, 0.1 µM, 30 min, delta over DMSO 0.1%
[10] = MM monolayer, 0.3 µM, 30 min, delta over DMSO 0.1%
[11] = MM monolayer, 1 µM, 30 min, delta over DMSO 0.1%
[12] = range of concentrations, negative control, FM and MM

## CN(CCOc1ccc(NS(C)(=O)=O)cc1)CCc1ccc(NS(C)(=O)=O)cc1 [Dofetilide]
[1]
  Free Cmax: 2.7 nM
[2]; 10 nM, both 2D models
  effect on APD90: significantly prolonged

## NC(=Nc1ccc(OCCCCCOc2ccc(N=C(N)c3ccccc3)cc2)cc1)c1ccccc1 [PA-6]
[3]; [4]
  CtAmp (%DD): 103±8.8 %DD
  CtD50 (%DD): 104±1.7 %DD
[3]; [5]
  CtAmp (%DD): 111±14.2 %DD
  CtD50 (%DD): 105±1.8 %DD
[3]; [6]
  CtAmp (%DD): 105±10.2 %DD
  CtD50 (%DD): 106±2.1 %DD
[3]; [7]
  CtAmp (%DD): 111 ± 8.1 %DD
  CtD50 (%DD): 112±2.5 %DD
[3]; [8]
  CtAmp (%DD): 127±13 %DD
  CtD50 (%DD): 101±1.3 %DD
[3]; [9]
  CtAmp (%DD): 99±11.2 %DD
  CtD50 (%DD): 103±1.1 %DD
[3]; [10]
  CtAmp (%DD): 135±22.2 %DD
  CtD50 (%DD): 105±1.9 %DD
[3]; [11]
  CtAmp (%DD): 114±9.8 %DD
  CtD50 (%DD): 107±1.2 %DD
[2]; [4]
  APD30 (%DD): 108±3.6 %DD
  APD90 (%DD): 104±1.1 %DD
  CL (%DD): 101±0.8 %DD
  Trise (%DD): 101±17.4 %DD
[2]; [5]
  APD30 (%DD): 99±3 %DD
  APD90 (%DD): 107±1.4 %DD
  CL (%DD): 98±2.3 %DD
  Trise (%DD): 70±6.1 %DD
[2]; [6]
  APD30 (%DD): 105±2.4 %DD
  APD90 (%DD): 111±0.8 %DD
  CL (%DD): 101±2.5 %DD
  Trise (%DD): 89±10.8 %DD
[2]; [7]
  APD30 (%DD): 110±1.3 %DD
  APD90 (%DD): 116±1.3 %DD
  CL (%DD): 108±1.4 %DD
  Trise (%DD): 128 ± 15.8 %DD
[2]; [8]
  APD30 (%DD): 107±1.9 %DD
  APD90 (%DD): 103±1.5 %DD
  CL (%DD): 97±0.7 %DD
  Trise (%DD): 119±25.1 %DD
[2]; [9]
  APD30 (%DD): 105±1 %DD
  APD90 (%DD): 111±2.2 %DD
  CL (%DD): 100±0.5 %DD
  Trise (%DD): 74±17.9 %DD
[2]; [10]
  APD30 (%DD): 107±1.9 %DD
  APD90 (%DD): 111±1 %DD
  CL (%DD): 102±0.8 %DD
  Trise (%DD): 96±12.7 %DD
[2]; [11]
  APD30 (%DD): 107±1.5 %DD
  APD90 (%DD): 111±1.7 %DD
  CL (%DD): 108±2.4 %DD
  Trise (%DD): 138±14.2 %DD
[2]; both FM and MM monolayers, concentration not given
  effect on APD90 (in words): mild APD90 prolongation
[2]; both experimental groups
  effect of selective Kir2.1 channel block: lack of effect

## COC(=O)C1=C(C)NC(C)=C(C(=O)OC)C1c1ccccc1[N+](=O)[O-] [Nifedipine]
[3]; 100 nM, 2D monolayers on fibronectin and Matrix Plus, positive control
  effect on duration of contraction: shortened; also recorded: reduced
[2]; 100 nM, 2D monolayers on fibronectin and Matrix Plus
  effect on APD90: shortened; also recorded: reduced

## CC(=O)OCC[N+](C)(C)C [acetylcholine]
[2]; both FM and MM, concentration not given
  effect on beating rate / spontaneous rate (in words): decrease
[2]; both groups (FM and MM)
  changes in the APD: < 10%

## COCCOC(=O)C1=C(C)NC(C)=C(C(=O)OC(C)C)C1c1cccc([N+](=O)[O-])c1 (centres unmarked) [Nimodipine]
[1]
  Free Cmax: 69 nM

## O=C(O)COCCN1CCN(C(c2ccccc2)c2ccc(Cl)cc2)CC1 (centres unmarked) [Cetirizine]
[3]; Homo sapiens, Cardiomyocyte, 0.5 h, FM monolayer, 0.1 µM, 30 min, delta over DMSO 0.1%, read-out: CtAmp (%DD)
  activity at 0.1 µM: 72 ± 13.3%
[3]; Homo sapiens, Cardiomyocyte, 0.5 h, FM monolayer, 0.3 µM, 30 min, delta over DMSO 0.1%, read-out: CtAmp (%DD)
  activity at 0.3 µM: 87 ± 14.6%
[3]; Homo sapiens, Cardiomyocyte, 0.5 h, FM monolayer, 1 µM, 30 min, delta over DMSO 0.1%, read-out: CtAmp (%DD)
  activity at 1 µM: 129 ± 32.9%
[3]; Homo sapiens, Cardiomyocyte, 0.5 h, MM monolayer, 1 µM, 30 min, delta over DMSO 0.1%, read-out: CtAmp (%DD)
  activity at 1 µM: 118 ± 14.2%
[3]; Homo sapiens, Cardiomyocyte, 0.5 h, MM monolayer, 3 µM, 30 min, delta over DMSO 0.1%, read-out: CtAmp (%DD)
  activity at 3 µM: 87 ± 5.3%
[3]; [12]
  change in the contractility parameters: No change
[2]; Homo sapiens, Cardiomyocyte, 0.5 h, FM monolayer, 0.1 µM, 30 min, delta over DMSO 0.1%, read-out: Trise (%DD)
  activity at 0.1 µM: 154 ± 32.6%
[2]; Homo sapiens, Cardiomyocyte, 0.5 h, FM monolayer, 0.3 µM, 30 min, delta over DMSO 0.1%, read-out: Trise (%DD)
  activity at 0.3 µM: 127 ± 16.8%
[2]; Homo sapiens, Cardiomyocyte, 0.5 h, FM monolayer, 3 µM, 30 min, delta over DMSO 0.1%, read-out: Trise (%DD)
  activity at 3 µM: 122 ± 8.8%
[2]; Homo sapiens, Cardiomyocyte, 0.5 h, MM monolayer, 0.1 µM, 30 min, delta over DMSO 0.1%, read-out: Trise (%DD)
  activity at 0.1 µM: 146 ± 16.9%
[2]; [12]
  change in the voltage parameters: No change
